# Source: US11529321B2, “Use of aminomethylenecyclohexane-1,3-dione compound” (WIGEN BIOMEDICINE TECHNOLOGY (SHANGHAI) CO., LTD., priority 2017, dated 2022)
# Molecular target: LC3B (Homo sapiens (Human), UniProt Q9GZQ8)
# Experiment: Fluorescence polarization assay, GST-LC3B with FITC-labeled peptide
# Method: Then the resulting mixture was incubated at 25° C. in the dark.
row,SMILES,IC50 [µM]
1,"CN(C)C=C1C(=O)CC(c2ccccc2)CC1=O (centres unmarked) [Compound 1, 2-((Dimethylamino)Methylene)-5-Phenyl-Cyclohexane-1,3-Dione]",3 to 15
2,"O=C1CC(c2ccccc2)CC(=O)C1=CNc1ccccc1 (centres unmarked) [Compound 11, 5-Phenyl-2-((Phenylamino)Methylene)-Cyclohexane-1,3-Dione]",15 to 100
3,Cc1n[nH]c(NC=C2C(=O)CC(C)(C)CC2=O)c1-c1ccccc1 [Compound 17],100 to 1000
4,CN(C)C=C1C(=O)CC2(CC2)CC1=O [Compound 22],100 to 1000
5,CNC(=O)NC=C1C(=O)CCCC1=O [Compound 25],100 to 1000
6,Cc1ccc(S(=O)(=O)NNC=C2C(=O)CCCC2=O)cc1 [Compound 26],100 to 1000
7,CC1(C)CC(=O)C(=CNCCN2CCN(C(=O)Cc3ccc(F)cc3)CC2)C(=O)C1 [Compound 46],100 to 1000
8,O=c1c(=CNc2ccccc2)c(=O)c2cccc3cccc1c32 [Compound 61],15 to 100
